Structures can show the parent of a compound that is named as a salt. Where two headings read alike, the source gives them in different places.
Key:
[1] = target: T1, central muscarinic M-1-receptors (Rattus norvegicus, UniProt P08482); experiment: 3H-pirenzepine (Pz) displacement from rat brain homogenates; type: binding
T1 sequence (P08482 1-460): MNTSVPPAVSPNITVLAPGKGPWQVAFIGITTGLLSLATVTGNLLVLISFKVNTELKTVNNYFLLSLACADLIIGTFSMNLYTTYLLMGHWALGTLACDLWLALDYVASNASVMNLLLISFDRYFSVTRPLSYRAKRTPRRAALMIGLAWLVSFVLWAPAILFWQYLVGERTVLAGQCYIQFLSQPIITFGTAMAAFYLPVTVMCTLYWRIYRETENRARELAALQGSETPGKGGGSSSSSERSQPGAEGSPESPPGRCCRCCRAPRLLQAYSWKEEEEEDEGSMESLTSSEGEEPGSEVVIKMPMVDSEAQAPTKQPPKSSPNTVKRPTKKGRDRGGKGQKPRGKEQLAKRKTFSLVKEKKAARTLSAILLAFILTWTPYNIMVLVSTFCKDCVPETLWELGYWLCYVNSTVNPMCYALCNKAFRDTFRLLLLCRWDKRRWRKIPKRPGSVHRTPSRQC
Method: (§1) Affinity to central cholinergic receptors in vitro was measured as the ability of the compounds to displace ^3 H-oxotremorine-M (Oxo-M) from rat brain homogenates, while affinity to central muscarinic M-1-receptors in vitro was measured as the ability of the compounds to displace ^3 H-pirenzepin (Pz) from rat brain homogenates.
was performed essentially as described by Watson et al., 1983, the conditions being very much the same as for ^3 H-oxotremorine binding, except that aliquots were incubated with 1.0 nM ^3 H-pirenzepine for 60 min. at 25° C. and that the reaction was stopped by direct filtration followed by 3 washes with 4 ml buffer.
Watson, M., Yamamura, H. I., and Roeske, W. R. (1983). "A unique regulatory profile and regional distribution of ^3 H-pirenzepin binding in the rat provide evidence for distinct M1 and M2 muscarinic receptor subtypes". Life Sci. 32 (1983) 3001-3011.

[2] = target: central cholinergic receptors; experiment: 3H-oxotremorine-M (Oxo-M) displacement from rat brain homogenates; type: binding; conditions: displacement of 3H-oxotremorine-M, pH 7.4, 40 min, 30° C
Method: as §1
^3 H-oxotremorine M binding
was performed essentially as described by Birdsdall et al., 1980. Briefly, rat brains were homogenized in 100 vol (w/v) 10 mM Na,K-phosphate buffer (pH 7.4) and aliquots incubated with ^3 H-oxotremorine M (84.9 Ci/m-mol, NEN) alone or in the presence of test compound in a total volume of 1.5 ml for 40 min. at 30° C. The reaction was stopped by adding 5 ml cold buffer and filtered through Whatman GF/B filters soaked previously in 0.1% polyethylenimin (Sigma) for minimum 30 min. The filters were washed once with the same volume of buffer, transferred to scintillation vials and extracted in scintillation fluid (Pico-fluor 15, Packard) for at least two hours before counted in a liquid scintillation spectrometer (Beckman LS 1800). Non-specific binding was estimated at 10 μM atropine and all estimations made in triplicate. At least two displacement curves were made for each compound tested.
Birdsdall N. J. M., Hulme E. C., and Burgen A. S. V. (1980). "The Character of Muscarinic Receptors in Different Regions of the Rat Brain". Proc. Roy. […] London (Series B) 207, 1.

[3] = displacement of 1.0 nM 3H-pirenzepine, rat brain homogenates, 60 min, 25° C, read-out: Pz, IC50

Row | SMILES | IC50 [1, 3] | IC50 [2] | IC50 [1]
1 | Cc1nc(C2=CCCNC2)nn1C [Compound 64, 1,5Dimethyl-3-(1,2,5,6-tetrahydro-3-pyridyl)-1,2,4-triazole, dihydrobromide, dihydrate] | 2.4 µM | 2.1 µM | –
2 | C=C=Cn1nnc(C2=CCCNC2)n1 [Compound 23, 2-Allenyl-5-(1,2,5,6-tetrahydro-3-pyridyl)-2H-tetrazole, hydrochloride] | 1.1 µM | 0.14 µM | –
3 | CC1C=C(c2nnn(C)n2)CNC1 (centres unmarked) [Compound 47, 2-Methyl-5-(5-methyl-1,2,5,6-tetrahydro-3-pyridyl)-2H-tetrazole, hydrobromide] | 0.28 µM | 0.098 µM | –
4 | Cc1cc(C2=CCCNC2)no1 [Compound 55, 5-Methyl-3-(1,2,5,6-tetrahydro-3-pyridyl)-isoxazole, hydrochloride] | 2.5 µM | 1 µM | –
5 | CN1CCCC(c2nnn(C)n2)C1 (centres unmarked) [Compound 14, 2-Methyl-5-methyl-3-piperidyl)-2H-tetrazole, oxalate] | 7.4 µM | 1.7 µM | –
6 | Cc1cnc(C2=CCCNC2)s1 [Compound 91, 5-Methyl-2-(1,2,5,6-tetrahydro-3-pyridyl)-thiazole, fumarate] | 1 µM | 0.36 µM | –
7 | C#CCn1nnc(C2=CCCNC2)n1 [Compound 22, 2-(2-Propynyl)-5-(1,2,5,6-tetrahydropyridyl)-2H-tetrazole, hydrochloride] | 0.38 µM | – | –
8 | C#CCn1nnc(C2=CCC(C)NC2)n1 (centres unmarked) [Compound 36, 2-(2-Propynyl-5-(6-methyl-1,2,5,6-tetrahydro-3-pyridyl)-2H-tetrazole, hydrochloride] | 0.25 µM | 0.39 µM | –
9 | CC1CC=C(c2nnn(C)n2)CN1C (centres unmarked) [Compound 31, 2-Methyl-5-(1,6-dimethyl-1,2,5,6-tetrahydro-3-pyridyl)-2H-tetrazole] | 0.14 µM | 0.31 µM | –
10 | C#CCn1nnc(C2CCCNC2)n1 (centres unmarked) [Compound 26, 2-(2-Propynyl)-5-(3-piperidyl)2H-tetrazole, hydrochloride] | – | 0.044 µM | 0.4 µM
11 | Cn1nnc(C2CCCNC2)n1 (centres unmarked) [Compound 13, 2-Methyl-(3-piperidyl)-2H-tetrazole, hydrochloride] | – | 0.047 µM | 3.6 µM
12 | CCn1nnc(C2=CCCN(C)C2)n1 [Compound 20, 2-Ethyl-5-(1-methyl-1,2,5,6-tetrahydro-3-pyridyl)-2H-tetrazole, oxalate] | 0.13 µM | 0.016 µM | –
13 | Cc1coc(C2=CCCN(C)C2)n1 [Compound 84, 4-Methyl-2-(1-methyl-1,2,5,6-tetrahydro-3-pyridyl)-oxazole, oxalate] | 0.058 µM | 0.028 µM | –
14 | Cn1ncc(C2=CCCNC2)n1 [Compound 72, 2-Methyl-4-(1,2,5,6-tetrahydro-3-pyridyl)-1,2,3-triazole, fumarate] | 0.79 µM | 0.00048 µM | –
15 | Cc1cnc(C2=CCCNC2)o1 [Compound 76, 5-Methyl-2-(1,2,5,6-tetrahydro-3-pyridyl)-oxazole, fumarate] | 1.3 µM | 0.19 µM | –
16 | CSc1n[nH]c(C2=CCCN(C)C2)n1 [Compound 67, 3-Methylthio-5-(1-methyl-1,2,5,6-tetrahydro-3-pyridyl)-1,2,4-triazole, fumarate] | 2 µM | 1.5 µM | –
17 | CSc1cnc(C2=CCCN(C)C2)s1 [Compound 93, 5-Methylthio-2-(1-methyl-1,2,5,6-tetrahydro-3-pyridyl)-thiazole, fumarate] | 0.13 µM | 0.018 µM | –
18 | CC1CC=C(c2nnn(C(C)C)n2)CN1C (centres unmarked) [Compound 34, 2-Isopropyl-5-(1,6-dimethyl-1,2,5,6-tetrahydro-3-pyridyl)-2H-tetrazole] | 0.35 µM | 0.18 µM | –
19 | Cc1coc(C2=CCCNC2)n1 [Compound 85, 4-Methyl-2-(1,2,5,6-tetrahydro-3-pyridyl)-oxazole, fumarate] | 1.4 µM | 0.0075 µM | –
20 | CC1=C(c2nnn(C)n2)CN(C)CC1 [Compound 38, 2-Methyl-5(1,4-dimethyl-1,2,5,6-tetrahydro-3-pyridyl)-2H-tetrazole, oxalate] | 1.2 µM | 1 µM | –
21 | Cc1cc(C2=CCCNC2)on1 [Compound 54, 3-Methyl-5(1,2,5,6-tetrahydro-3-pyridyl)-isoxazole, maleate] | 4 µM | 0.23 µM | –
22 | C#CCn1nnc(C2=CC(C)CNC2)n1 (centres unmarked) [Compound 50, 2-(2-Propynyl)-5-(5-methyl-1,2,5,6-tetrahydro-3-pyridyl)-2H-tetrazole hydrochloride] | 0.068 µM | 0.062 µM | –

Further compounds by falling IC50 [1, 3], results first:

Row | IC50 [1, 3] | IC50 [2] | SMILES | IC50 [1]
23 | 27 µM | 3.2 µM | Cn1nnnc1C1=CCCNC1 [Compound 9, 1-Methyl-5(1,2,5,6-tetrahydro-3-pyridyl)-2H-tetrazole, fumarate] | –
24 | 4.9 µM | 1.4 µM | Cn1cnc(C2=CCCNC2)n1 [Compound 60, 1-Methyl-3-(1,2,5,6-tetrahydro-3-pyridyl-1,2,4-triazole, dihydrobromide] | –
25 | 4.2 µM | 0.22 µM | COc1cnc(C2=CCCNC2)o1 [Compound 81, 5-Methoxy-2-(1,2,5,6-tetrahydro-3-pyridyl)-oxazole, 1.25 fumarate] | –
26 | 2.1 µM | 0.0063 µM | Cn1nnc(C2=CCCNC2)n1 [Compound 8, 2-Methyl-5(1,2,5,6-tetrahydro-3-pyridyl)-2H-tetrazole, hydrobromide] | –
27 | 1.8 µM | 0.68 µM | CC1C=C(c2nnn(C)n2)CN(C)C1 (centres unmarked) [Compound 48, 2-Methyl-5-(1,5-dimethyl-1,2,5,6-tetrahydro-3-pyridyl)-2H tetrazole, oxalate] | –
28 | 1.5 µM | 0.81 µM | CC1=C(c2nnn(C)n2)CNCC1 [Compound 39, 2-Methyl-5-(4-methyl-1,2,5,6-tetrahydro-3-pyridyl)-2H-tetrazole, 0.75 oxalate] | –
29 | 1.5 µM | – | COc1cnc(C2=CCCN(C)C2)o1 [Compound 80, 5-Methoxy-2-(1-methyl-1,2,5,6-tetrahydro-3-pyridyl)-oxazol, oxalate] | –
30 | 1.4 µM | 0.25 µM | CC1CC=C(c2nnn(C)n2)CN1 (centres unmarked) [Compound 30, 2-Methyl-5-(6-methyl-1,2,5,6-tetrahydro-3-pyridyl)-2H-tetrazole, hydrobromide] | –
31 | 0.9 µM | 0.32 µM | CC1CC=C(c2nnn(C(C)C)n2)CN1 (centres unmarked) [Compound 33, 2-Isopropyl-5-(6-methyl-1,2,5,6-tetraydro-3-pyridyl)-2H-tetrazole, hydrobromide] | –
32 | 0.61 µM | 0.28 µM | CN1CCC=C(c2ncn(C)n2)C1 [Compound 59, 1-Methyl-3(1-methyl-1,2,5,6-tetrahydro-3-pyridyl)-1,2,4-triazole, hemifumarate] | –
33 | 0.48 µM | 0.28 µM | CC(C)n1nnc(C2=CCCNC2)n1 [Compound 17, 2-Isopropyl-5-(1,2,5,6-tetrahydro-3-pyridyl)-2H-tetrazole, hydrobromide] | –
34 | 0.42 µM | 0.18 µM | Cc1cnc(C2=CCCN(C)C2)s1 [Compound 90, 5-Methyl-2-(1-methyl-1,2,5,6-tetrahydro-3-pyridyl)-thiazole, hemifumarate] | –
35 | 0.4 µM | 0.13 µM | CN1CCC=C(C2=NC(C)(C)CO2)C1 [Compound 87, 4,4-Dimethyl-2-1-methyl-1,2,5,6-tetrahydro-3-pyridyl)-oxazoline, fumarate] | –
36 | 0.39 µM | 0.0087 µM | CN1CCC=C(c2nnn(C)n2)C1 [Compound 10, 2-Methyl-5-(1-methyl-1,2,5,6-tetrahydro-3-pyridyl)2H-tetrazole] | –
37 | 0.37 µM | 0.057 µM | Cc1cnc(C2=CCCN(C)C2)o1 [Compound 75, 5-Methyl-2-(1-methyl-1,2,5,6-tetraydro-3-pyridyl)-oxazole, oxalate] | –
38 | 0.18 µM | 0.35 µM | Cc1cc(C2=CCCN(C)C2)nn1C [Compound 95, 1,5-Dimethyl-3-(1-methyl-1,2,5,6-tetrahydro-3-pyridyl)-pyrazole, dihydrochloride] | –

From patent USRE36374E, “1,2,3-triazole and tetrazole substituted piperidine or tetrahydropyridine compounds useful as acetylcholine agonists” (priority 1987, dated 1999)
